Measured values published in patent US7943146B2, “Immunizing compositions comprising HIV-1 proviral constructs with an inactive p6 gag TSG101 UEV binding domain capable of producing budding-defective viral particles that remain tethered to the cell surface” (priority 2001, dated 2011).

Legend:
HIV = test: microbe, parasite or virus in culture; format: cell-based, HIV-1
Protocol: Fresh human blood was obtained commercially from Interstate Blood Bank, Inc. (Memphis, Tenn.). The lymphotropic clinical isolate HIV-1ROJO was obtained from a pediatric patient attending the AIDS Clinic at the University of Alabama at Birmingham. The laboratory-adapted HIV-1IIIB strain was propagated and tittered in fresh human PBMCs; pre-titered aliquots of HIV-1ROJO and Hiv-1IIIB were removed from the freezer (−80° C.) and thawed rapidly to room temperature in a biological safety cabinet immediately before use. Phytohemagglutinin (PHA-P) was obtained from Sigma (St. Louis, Mo.) and recombinant IL-2 was obtained from Amgen (San Francisco, Calif.).
Fresh human PBMCs were isolated from screened donors, seronegative for HIV and HBV. Leukophoresed blood was diluted 1:1 with Dulbecco's phosphate buffered saline (PBS), layered over 14 mL of Ficoll-Hypaque density gradient in a 50 mL centrifuge tube and then centrifuged for 30 minutes at 600×g. Banded PBMCs were aspirated from the resulting interface and subsequently washed 2× with PBS by low speed centrifugation. After the final wash, cells were enumerated by trypan blue exclusion and re-suspended at 1×10^7 cells/mL in RPMI 1640 supplemented with 15% Fetal Bovine Serum (FBS), 2 mM L-glutamine, 4 μg/mL PHA-P. The cells were allowed to incubate for 48-72 hours at 37° C. After incubation, PBMCs were centrifuged and reset in RPMI 1640 with 15% FBS, 2 mM L-glutamine, 100 U/ml penicillin, 100 μg/mL streptomycin, 10 μg/mL gentamycin, and 20 U/mL recombinant human IL-2. PBMCs were maintained in this medium at a concentration of 1-2×10^6 cells/mL with biweekly medium changes until used in the assay protocol.
For the standard PBMC assay, PHA-P stimulated cells from at least two normal donors were pooled, diluted in fresh medium to a final concentration of 1×10^6 cells/mL, and plated in the interior wells of 96 well round bottom microplate at 50 μL/well (5×10^4 cells/well). Test drug dilutions were prepared at a 2× concentration in microtiter tubes and […] of each concentration was placed in appropriate wells in a standard format. […] Wells with cells and virus alone were used for virus control. Separate plates were prepared identically without virus for drug cytotoxicity studies using an XTT assay system. The PBMC cultures were maintained for seven days following infection, at which time cell-free supernate samples were collected and assayed for reverse transcriptase activity as described below.
A microtiter based reverse transcriptase (RT) reaction was utilized. See Buckheit et al., AIDS Research and Human Retroviruses 7:295-302 (1991). Tritiated thymidine triphosphate (NEN) (TTP) was resuspended in distilled H2O at 5 Ci/ml. Poly rA and oligo dT were prepared as a stock solution which was kept at −20° C. The RT reaction buffer was prepared fresh on a daily basis and consists of 125 μl 1M EGTA, 125 μl dH2O, 110 μl 10% SDS, 50 μl 1M Tris (pH 7.4), 50 μl 1M DTT, and 40 μl 1M MgCL2. These three solutions were mixed together in a ratio of 2 parts TTP, 1 part poly rA:oligo dT, and 1 part reaction buffer. Ten microliters of this reactions mixture was placed at a round bottom microtiter plate and 15 μl of virus containing supernatant was added and mixed. […] Opti-Fluor-O (Packard) was added to each sample and incorporated radioactivity was quantified utilizing a Wallac 1450 MicroBeta Plus liquid scintillation counter.

[1] = Cytotoxicity measurement in uninfected PBMCs (MTS staining); format: cell-based; conditions: human PBMCs without virus, seven days; read-out: TC50
Protocol: At assay termination the assay plates were stained with the soluble tetrazolium-based dye MTS (CellTiter Reagent, Promega) to determine cell viability and quantify compound toxicity. MTS is metabolized by the mitochondria enzymes of metabolically active cells to yield a soluble formazan product, allowing the rapid quantitative analysis cell viability and compound cytotoxicity. […] At termination of the assay, 20 μl of MTS reagent was added per well. The wells were incubated overnight for the HIV cytoprotection assay at 37° C. The incubation intervals were chosen based on empirically determined times for optimal dye reduction in each cell type. Adhesive plate sealers were used in place of the lids, the sealed plate was inverted several times to mix the soluble formazan product and the plate was read spectrophotometrically at 490 nm with a Molecular Devices Vmax plate reader.

[2] = biological target: T1, interaction between GAGp6 and Tsg101 (Homo sapiens, UniProt Q99816); test: In vitro binding assay: GST-p6 on plate, myc-tagged Tsg101 (residues 1-207), competition by peptide; conditions: FIG. 3, different peptide concentrations, fluorescence signal
T1 construct: Drosophila S2 cell lysate myc-tagged Tsg101 (residues 1-207); made in house; host or cells: Drosophila S2 cells (Tsg101, used as cell lysate)
T1 sequence (Q99816 1-207): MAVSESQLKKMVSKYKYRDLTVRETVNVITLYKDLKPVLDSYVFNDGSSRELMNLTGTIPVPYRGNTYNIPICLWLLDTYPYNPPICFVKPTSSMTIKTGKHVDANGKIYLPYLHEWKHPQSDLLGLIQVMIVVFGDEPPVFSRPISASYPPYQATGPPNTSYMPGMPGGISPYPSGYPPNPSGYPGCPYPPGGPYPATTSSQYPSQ
Protocol: A fusion protein with a GST tag fused to the HIV-1 GAGp6 domain was recombinantly expressed and purified by chromatography. In addition, a GAGp6 peptide containing the first 14 amino acid residues (“p6(1-14)”) was synthesized chemically by standard peptide synthesis methods. The peptide was purified by conventional protein purification techniques, e.g., by chromatography.
Nunc/Nalgene Maxisorp plates were incubated overnight at 4° C. or for 1-2 hrs at room temperature in 100 μl of a protein coupling solution containing purified GST-p6 and 50 mM Carbonate, pH=9.6. This allowed the attachment of the GST-p6 fusion protein to the plates. Liquids in the plates were then emptied and wells filled with 400 μl/well of a blocking buffer (SuperBlock; Pierce-Endogen, Rockford, Ill.). […]
Plates were then washed 4×100 μl with 1×PBST solution (Invitrogen; Carlsbad, Calif.). […] Plates were then read on a Packard Fusion instrument at an excitation wavelength of 325 nm and an emission wavelength of 420 nm. […]
Different concentrations of the p6(1-14) peptide were tested, and the relative intensities of the fluorescence signals obtained at different concentrations were plotted against the peptide concentrations. […]

Compound: Cc1cn([C@H]2C[C@H](N=[N+]=[N-])[C@@H](CO)O2)c(=O)[nH]c1=O [AZT, 3′-Azido-3′-deoxythymidine, reference compound]
- IC50 (HIV; Human immunodeficiency virus 1, PBMC, 168 h, PHA-P stimulated human PBMCs, MOI≈0.1, seven days, RT activity in supernate): 8 nM
- Comments (anti-HIV activity) (HIV; human PBMCs): Control; Highly Active
- CC50 at 7 days [1]: > 1000 nM

Compound: p6(1-14): GAGp6 peptide containing the first 14 amino acid residues, synthesized chemically (LQSRPEPTAPPEES)
- inhibition of the interaction between GAGp6 and Tsg101 [2]: competitive inhibition
